Activity data for two molecules are collected here from patent US8283349B2, “Fungicide N-(3-phenylpropyl) carboxamide derivatives” (Bayer Cropscience AG, priority 2007, dated 2012).

The subject of this assay is Mycosphaerella graminicola. The assay can be described thus: Cell test on Mycosphaerella graminicola. Format: cell-based. Conditions: under similar conditions (6 ppm, liquid medium, OD 620 nm); comparison compounds of the prior art. On the procedure: The growth of Mycosphaerella graminicola is performed in a bactopeptone based liquid medium at 20° C. under shaking (120 rpm) during 72 hours. The bactopeptone based medium is prepared by mixing 14.6 grams of D-glucose, 1.4 grams of Yeast extract and 7.1 g of bacteriological peptone (OXOID ref. LP0037) in 1 liter of demineralized water. The medium is sterilized by autoclave 15 minutes at 121° C. After 72 hours, pre-culture of Mycosphaerella graminicola is recovered and the optic density (OD) at 620 nm is adjusted with the bactopeptone based medium at 0.5. The compounds are dissolved in DMSO and added to sterile liquid bactopeptone medium at a concentration of 6 ppm. The medium is inoculated with the pre-culture of Mycosphaerella graminicola by a dilution of 10 times of the pre-culture. The efficacy of the compounds is assessed by OD measurement at 620 nm after 4 days at 20° C. in comparison with a control.

In the case of `COc1ccnc(C(=O)NCCC(c2ccccc2)c2ccccc2)c1O` [compound 16, N-(3,3-diphenylpropyl)-3-hydroxy-4-methoxypyridine-2-carboxamide], the activity entry is listed as “did not show any activity”. For the molecule `COc1ccc(CCCNC(=O)c2c(-c3ccc(Cl)cc3)noc2C)cc1OC` [compound 60, 3-(4-chlorophenyl)-N-[3-(3,4-dimethoxyphenyl)propyl]-5-methylisoxazole-4-carboxamide], the activity result was “did not show any activity”.
